For two compounds, remaining binding results are on record in patent publication EP2505659A1, “Methods for the identification of dioxygenase interacting molecules and for the purification of dioxygenase proteins” (CELLZOME AG, priority 2011, dated 2012).

SMILES strings stand for the structures. Counter-ions that a name gives are not always drawn.

Test [1] deals with T1, EGLN1 (Homo sapiens, UniProt Q9GZT9).
T1 construct: endogenous in cells
The test is described as follows: Bead competition binding assay, immobilized compound B, HL-60 nuclear extract. The following applies: 200 µM free compound B, read-out: Fold change versus DMSO control. The procedure:
(§1) The preparation of HL-60 nuclear lysates, capturing of dioxygenases from cell lysate and the protein identification by Mass Spectrometry was performed as described in example 2.
(§2) Seven different dioxygenases were identified. […] Table 7: Identified dioxygenases with compound B from HL-60 nuclear extract

Test [2] concerns the target T2, LEPREL2 (Homo sapiens, UniProt Q8IVL6).
T2 construct: capturing and identification of dioxygenases from nuclear protein extracts; endogenous in cells
T2 sequence (Q8IVL6 21-736): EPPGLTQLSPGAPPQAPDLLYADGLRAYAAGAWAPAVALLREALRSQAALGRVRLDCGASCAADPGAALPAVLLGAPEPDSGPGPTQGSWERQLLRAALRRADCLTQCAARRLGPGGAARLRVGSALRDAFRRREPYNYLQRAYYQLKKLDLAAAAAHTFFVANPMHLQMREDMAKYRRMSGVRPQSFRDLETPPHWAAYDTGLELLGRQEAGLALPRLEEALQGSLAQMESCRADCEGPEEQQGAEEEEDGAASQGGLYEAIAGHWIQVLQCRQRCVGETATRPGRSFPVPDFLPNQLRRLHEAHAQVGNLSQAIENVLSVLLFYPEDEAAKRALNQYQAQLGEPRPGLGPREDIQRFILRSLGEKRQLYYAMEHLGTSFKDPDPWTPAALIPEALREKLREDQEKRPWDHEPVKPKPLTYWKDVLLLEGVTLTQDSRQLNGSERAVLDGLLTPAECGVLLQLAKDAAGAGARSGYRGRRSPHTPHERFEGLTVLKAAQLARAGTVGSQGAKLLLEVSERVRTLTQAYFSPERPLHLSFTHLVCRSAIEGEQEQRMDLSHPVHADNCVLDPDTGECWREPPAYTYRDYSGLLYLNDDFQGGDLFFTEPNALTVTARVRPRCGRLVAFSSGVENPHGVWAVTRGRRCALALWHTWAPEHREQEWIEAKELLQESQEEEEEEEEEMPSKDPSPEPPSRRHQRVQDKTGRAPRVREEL
Described as above. To be noted: 200 µM free compound B, read-out: Fold change versus DMSO control. The procedure:
as §1, §2

For a further test, the target named is T3, OGFOD2 (Homo sapiens, UniProt Q6N063).
T3 construct: endogenous in cells; host or cells: HL-60 nuclear extract
T3 sequence (Q6N063 1-350): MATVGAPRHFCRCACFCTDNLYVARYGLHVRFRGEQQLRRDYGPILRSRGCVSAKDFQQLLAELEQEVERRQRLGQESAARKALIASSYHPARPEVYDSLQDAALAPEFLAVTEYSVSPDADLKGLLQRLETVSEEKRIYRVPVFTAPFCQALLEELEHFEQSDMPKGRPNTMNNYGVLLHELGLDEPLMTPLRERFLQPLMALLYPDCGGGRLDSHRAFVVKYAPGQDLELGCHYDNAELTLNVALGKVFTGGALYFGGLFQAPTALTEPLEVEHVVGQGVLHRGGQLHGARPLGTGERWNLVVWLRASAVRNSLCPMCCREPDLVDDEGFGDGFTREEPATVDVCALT
Described as above. To be noted: 200 µM free compound B, read-out: Fold change versus DMSO control. The procedure:
as §1, §2

The target of test [3] is T4, LEPRE1 (Homo sapiens, UniProt Q32P28).
T4 construct: capturing and identification of dioxygenases from nuclear protein extracts; endogenous in cells
T4 sequence (Q32P28 23-736): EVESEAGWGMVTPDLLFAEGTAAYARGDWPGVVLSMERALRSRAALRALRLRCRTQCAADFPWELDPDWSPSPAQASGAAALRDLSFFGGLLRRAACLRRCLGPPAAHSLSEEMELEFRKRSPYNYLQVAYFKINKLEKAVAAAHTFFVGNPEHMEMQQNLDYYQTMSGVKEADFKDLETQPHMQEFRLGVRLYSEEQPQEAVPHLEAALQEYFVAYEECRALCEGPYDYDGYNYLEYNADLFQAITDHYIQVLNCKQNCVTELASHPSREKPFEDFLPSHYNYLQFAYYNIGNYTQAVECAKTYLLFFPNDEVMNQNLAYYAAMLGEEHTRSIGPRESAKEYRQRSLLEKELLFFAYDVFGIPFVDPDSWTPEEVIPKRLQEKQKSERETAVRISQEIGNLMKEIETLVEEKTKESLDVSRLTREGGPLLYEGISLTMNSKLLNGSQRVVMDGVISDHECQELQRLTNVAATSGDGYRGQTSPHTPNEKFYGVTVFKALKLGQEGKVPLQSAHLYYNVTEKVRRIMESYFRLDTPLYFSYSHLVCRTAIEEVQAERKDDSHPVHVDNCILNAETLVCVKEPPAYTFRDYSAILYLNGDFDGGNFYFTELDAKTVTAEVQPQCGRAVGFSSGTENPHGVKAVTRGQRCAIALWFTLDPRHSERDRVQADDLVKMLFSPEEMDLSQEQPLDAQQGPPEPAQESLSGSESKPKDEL
Described as above. To be noted: 200 µM free compound B, read-out: Fold change versus DMSO control. The procedure:
as §1, §2

For test [4], the target named is T5, C17ORF101 (Homo sapiens, UniProt Q6PK18).
T5 construct: capturing and identification of dioxygenases from nuclear protein extracts; endogenous in cells
T5 sequence (Q6PK18 1-331 isoform Q6PK18-2): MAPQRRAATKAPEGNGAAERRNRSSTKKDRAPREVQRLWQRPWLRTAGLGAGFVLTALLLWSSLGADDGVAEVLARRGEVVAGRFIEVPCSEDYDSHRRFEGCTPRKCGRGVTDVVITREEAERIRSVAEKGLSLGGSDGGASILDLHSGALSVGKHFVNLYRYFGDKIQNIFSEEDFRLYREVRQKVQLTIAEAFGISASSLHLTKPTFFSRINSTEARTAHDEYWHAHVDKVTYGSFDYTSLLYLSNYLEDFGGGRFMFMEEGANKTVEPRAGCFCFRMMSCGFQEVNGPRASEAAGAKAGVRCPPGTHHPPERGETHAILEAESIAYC
The description is as above. The following applies: 200 µM free compound B, read-out: Fold change versus DMSO control. The procedure:
as §1, §2

Test [5] addresses T6, ALKBH3 (Homo sapiens, UniProt Q96Q83).
T6 construct: capturing and identification of dioxygenases from nuclear protein extracts; endogenous in cells
T6 sequence (Q96Q83 1-286): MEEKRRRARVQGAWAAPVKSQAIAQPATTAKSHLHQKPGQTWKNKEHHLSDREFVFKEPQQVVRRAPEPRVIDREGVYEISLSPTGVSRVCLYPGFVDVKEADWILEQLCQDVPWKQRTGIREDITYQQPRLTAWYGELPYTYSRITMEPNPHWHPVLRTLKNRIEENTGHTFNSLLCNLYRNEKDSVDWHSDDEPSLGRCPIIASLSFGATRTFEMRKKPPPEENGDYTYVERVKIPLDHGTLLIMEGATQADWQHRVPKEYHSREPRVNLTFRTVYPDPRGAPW
The test is described as above. The following applies: 200 µM free compound B, read-out: Fold change versus DMSO control. The procedure:
as §1, §2

For test [6], the target named is T7, P4HA1 (Homo sapiens, UniProt P13674).
T7 construct: endogenous in cells
T7 sequence (P13674 18-534): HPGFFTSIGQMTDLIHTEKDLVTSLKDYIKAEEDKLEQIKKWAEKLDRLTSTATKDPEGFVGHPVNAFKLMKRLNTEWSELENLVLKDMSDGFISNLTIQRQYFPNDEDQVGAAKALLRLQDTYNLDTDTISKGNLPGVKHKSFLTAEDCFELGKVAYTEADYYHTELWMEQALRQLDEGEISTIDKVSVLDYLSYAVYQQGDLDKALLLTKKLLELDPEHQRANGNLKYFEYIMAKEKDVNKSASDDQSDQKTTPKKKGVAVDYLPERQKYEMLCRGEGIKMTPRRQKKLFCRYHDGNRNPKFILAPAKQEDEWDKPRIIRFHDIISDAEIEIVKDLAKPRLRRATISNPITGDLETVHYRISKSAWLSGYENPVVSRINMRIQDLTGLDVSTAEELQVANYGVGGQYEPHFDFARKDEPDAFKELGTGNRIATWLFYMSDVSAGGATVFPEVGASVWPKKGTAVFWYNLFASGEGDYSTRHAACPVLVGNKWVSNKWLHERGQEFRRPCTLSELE
T7 sequence (P07237 18-508 partner): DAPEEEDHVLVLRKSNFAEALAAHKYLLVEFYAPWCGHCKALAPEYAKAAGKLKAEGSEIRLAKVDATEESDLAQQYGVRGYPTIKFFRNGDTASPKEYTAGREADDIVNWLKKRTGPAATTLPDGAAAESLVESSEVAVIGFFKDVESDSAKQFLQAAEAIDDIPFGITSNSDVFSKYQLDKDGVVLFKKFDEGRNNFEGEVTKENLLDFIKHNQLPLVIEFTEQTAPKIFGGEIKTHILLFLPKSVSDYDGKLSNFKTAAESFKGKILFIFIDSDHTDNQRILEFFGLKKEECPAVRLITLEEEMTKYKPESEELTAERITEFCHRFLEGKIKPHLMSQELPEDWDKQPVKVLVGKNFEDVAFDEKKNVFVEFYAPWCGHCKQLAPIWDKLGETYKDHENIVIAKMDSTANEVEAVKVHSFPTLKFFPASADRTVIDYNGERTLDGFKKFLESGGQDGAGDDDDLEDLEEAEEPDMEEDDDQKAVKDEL
Described as above. To be noted: 200 µM free compound B, read-out: Fold change versus DMSO control. The procedure:
as §1, §2

The target in test [7] is T1, EGLN1. The test is described as follows: Bead competition binding assay, immobilized compound C, HL-60 nuclear extract. The following applies: 200 µM free compound C, read-out: Fold change versus DMSO control. The procedure: as §1
(§3) Seven different dioxygenases were identified. […] Table 8: Identified dioxygenases with compound C from HL-60 nuclear extract

Test [8] addresses T2, LEPREL2. The description is as above. To be noted: 200 µM free compound C, read-out: Fold change versus DMSO control. The procedure: as §1, §3
A further test concerns the target T8, PLOD1 (Homo sapiens, UniProt Q02809).
T8 construct: capturing and identification of dioxygenases from nuclear protein extracts; endogenous in cells
T8 sequence (Q02809 19-727): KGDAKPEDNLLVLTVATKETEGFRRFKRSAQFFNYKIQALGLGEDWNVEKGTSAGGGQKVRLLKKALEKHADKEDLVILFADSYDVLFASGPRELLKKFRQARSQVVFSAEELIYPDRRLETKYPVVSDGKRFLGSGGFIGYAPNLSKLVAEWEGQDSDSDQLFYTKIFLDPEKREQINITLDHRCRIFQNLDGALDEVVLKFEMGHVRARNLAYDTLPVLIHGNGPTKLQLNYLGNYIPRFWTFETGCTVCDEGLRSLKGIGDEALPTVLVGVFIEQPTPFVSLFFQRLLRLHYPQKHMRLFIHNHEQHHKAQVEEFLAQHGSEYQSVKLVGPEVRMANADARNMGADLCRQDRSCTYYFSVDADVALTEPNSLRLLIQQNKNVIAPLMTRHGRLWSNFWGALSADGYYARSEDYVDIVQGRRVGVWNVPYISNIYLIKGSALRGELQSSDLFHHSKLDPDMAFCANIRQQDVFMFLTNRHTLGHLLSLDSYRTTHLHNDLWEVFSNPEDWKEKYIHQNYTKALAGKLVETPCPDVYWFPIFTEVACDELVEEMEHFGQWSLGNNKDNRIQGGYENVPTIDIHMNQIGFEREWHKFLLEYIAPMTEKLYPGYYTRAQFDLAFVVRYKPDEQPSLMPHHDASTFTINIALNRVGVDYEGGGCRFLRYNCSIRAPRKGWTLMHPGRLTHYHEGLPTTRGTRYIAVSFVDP
The test is described as above. The following applies: 200 µM free compound C, read-out: Fold change versus DMSO control. The procedure:
as §1, §3

The target of test [9] is T4, LEPRE1. The test is described as above. The following applies: 200 µM free compound C, read-out: Fold change versus DMSO control. The procedure: as §1, §3
Test [10] addresses T5, C17ORF101. Described as above. To be noted: 200 µM free compound C, read-out: Fold change versus DMSO control. The procedure: as §1, §3
In test [11] the target is T6, ALKBH3. The test is described as above. To be noted: 200 µM free compound C, read-out: Fold change versus DMSO control. The procedure:
as §1, §3

The target in test [12] is T7, P4HA1. The test is described as above. To be noted: 200 µM free compound C, read-out: Fold change versus DMSO control. The procedure:
as §1, §3

T1 sequence (Q9GZT9 whole entry): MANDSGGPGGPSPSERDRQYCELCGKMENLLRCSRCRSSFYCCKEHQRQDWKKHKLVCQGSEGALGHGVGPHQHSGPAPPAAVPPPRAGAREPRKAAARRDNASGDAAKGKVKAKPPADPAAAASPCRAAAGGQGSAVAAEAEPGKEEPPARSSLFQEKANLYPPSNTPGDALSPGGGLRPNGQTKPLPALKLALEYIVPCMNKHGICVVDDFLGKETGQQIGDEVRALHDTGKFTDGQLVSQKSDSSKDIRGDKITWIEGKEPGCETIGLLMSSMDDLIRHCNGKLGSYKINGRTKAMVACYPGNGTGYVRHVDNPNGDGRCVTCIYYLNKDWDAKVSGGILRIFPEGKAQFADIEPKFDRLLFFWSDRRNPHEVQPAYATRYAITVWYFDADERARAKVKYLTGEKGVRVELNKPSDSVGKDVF

Regarding `O=C(O)CNC(=O)C1C(=O)OC2(CCCNC2)OC1=O` (centres unmarked) [compound B, 2-(2,4-dioxo-1,5-dioxa-8-azaspiro[5.5]undecane-3-carboxamido)acetic acid hydrochloride], the remaining binding at 200 µM on EGLN1 [1] worked out at 52%; on LEPREL2 [2] it was 13%; on OGFOD2, 18%; at LEPRE1 [3], 67%; at C17ORF101 [4], 52%; at ALKBH3 [5], 56%. Further, at P4HA1 [6], the remaining binding at 200 µM was determined as 24%.
On to `O=C(O)CNC(=O)C1C(=O)OC(C2CCNCC2)OC1=O` (centres unmarked) [compound C, 2-(4,6-dioxo-2-(piperidin-4-yl)-1,3-dioxane-5-carboxamido)acetic acid hydrochloride], for which the remaining binding at 200 µM on EGLN1 [7] was determined as 19%; on LEPREL2 [8], 12%; on PLOD1, 51%; on LEPRE1 [9], 48%; at C17ORF101 [10], 24%; on ALKBH3 [11] it was 45%. At P4HA1 [12], the remaining binding at 200 µM was determined as 10%.
